Calls of active or inactive are those of the source. The rule behind the calls is not given here.

The text below walks through data of ChEMBL document CHEMBL5150042, “Phenolic furanochromene hydrazone derivatives: Synthesis, antioxidant activity, ferroptosis inhibition, DNA cleavage and DNA molecular docking studies” (Bioorg Med Chem, 2022).

One experiment has as its system HaCaT. The experiment in a line: Anti-ferroptotic activity against erastin-induced ferroptosis in human HaCaT cells assessed as cell viability at 5 uM pretreated with compound for 4 hrs followed by erastin challenge for 24 hrs by MTT assay (reference value: 45%). The format is functional. The note with it: time 28 hrs, read-out: Activity.
Experiment [1] concerns DNA. The experiment in a line: Induction of copper-mediated Escherichia coli supercoiled pBR322 DNA cleavage assessed as increase in open circular form of DNA with small amount of linear form at 1 mM incubated for 24 hrs in presence of Cu2+ ion by agarose gel electrophoresis analysis. It is filed as nucleic-acid assay.
The nature of experiment [2]: Antioxidant activity assessed as DPPH radical scavenging activity incubated for 30 mins under dark condition by microplate reader based assay. It is filed as functional.
Experiment [3] can be described thus: Antioxidant activity assessed as trolox equivalent of Cu2+ reducing activity incubated for 30 mins by CUPRAC assay relative to trolox. It is filed as functional.
Experiment [4] has as its system DNA. Kind of experiment: Induction of copper-mediated Escherichia coli supercoiled pBR322 DNA cleavage at 100 uM incubated for 24 hrs in presence of Cu2+ ion by agarose gel electrophoresis analysis. It is filed as nucleic-acid assay.
The subject of experiment [5] is DNA. The experiment in a line: Induction of copper-mediated Escherichia coli supercoiled pBR322 DNA cleavage assessed as increase in open circular form of DNA at 1 mM incubated for 24 hrs in presence of Cu2+ ion by agarose gel electrophoresis analysis. The format is nucleic-acid assay.
Experiment [6] concerns DNA. The experiment in a line: Induction of copper-mediated Escherichia coli supercoiled pBR322 DNA cleavage assessed as increase in open circular form and linear form of DNA at 100 uM incubated for 24 hrs in presence of Cu2+ ion by agarose gel electrophoresis analysis. It is filed as nucleic-acid assay.
Experiment [7] deals with DNA. The experiment in a line: Induction of copper-mediated Escherichia coli supercoiled pBR322 DNA cleavage assessed as cleavage of DNA into smaller fragments at 1 mM incubated for 24 hrs in presence of Cu2+ ion by agarose gel electrophoresis analysis. It is filed as nucleic-acid assay.
In experiment [8] the test system is DNA. The experiment in a line: Induction of Escherichia coli supercoiled pBR322 DNA cleavage incubated for 90 mins in presence of Cu2+ ion by agarose gel electrophoresis analysis. The format is nucleic-acid assay. The note with it: dose 3.9-500 µM, DDE = dose-dependent effect.
The test system of experiment [9] is DNA. The experiment in a line: Induction of copper-mediated Escherichia coli supercoiled pBR322 DNA cleavage assessed as increase in cleaved DNA with significant amount of supercoiled form at 1 mM incubated for 24 hrs in presence of Cu2+ ion by agarose gel electrophoresis analysis. The format is nucleic-acid assay.

With `COc1cc(O)c(/C=N/NC(=O)c2cc3ccc4c(c3o2)C=CC(C)(C)O4)c(OC)c1`, the viability at 5 µM in the experiment on HaCaT was 41%. The outcome with DNA [1] was Active. In addition, the IC50 in experiment [2] (read-out: IC50) was more than 100 µM. Further, the Ratio in experiment [3] was 0.97.
In the case of `CC1(C)C=Cc2c(ccc3cc(C(=O)N/N=C/c4ccc(O)cc4O)oc23)O1`, the half-maximal inhibitory concentration (IC50) in experiment [2] (read-out: IC50) was determined as 70.1 µM. Further, in experiment [3], the Ratio was found to be 1.42.
Take `COc1cc(/C=N/NC(=O)c2cc3ccc4c(c3o2)C=CC(C)(C)O4)cc([N+](=O)[O-])c1O`: the viability at 5 µM with HaCaT amounted to 59%. The outcome with DNA [4] and with DNA [1] was Active. Also, the IC50 in experiment [2] (read-out: IC50) was more than 100 µM. Further, the Ratio in experiment [3] is 1.52.
Regarding `CC1(C)C=Cc2c(ccc3cc(C(=O)N/N=C/c4ccc(O)c(O)c4O)oc23)O1`, the result with DNA [5] and in the experiment with DNA [6] was Active. The viability at 5 µM with HaCaT worked out at 70%. In addition, the IC50 in experiment [2] (read-out: IC50) is 10.1 µM. Moreover, in experiment [3], the Ratio turned out to be 2.89.
With `COc1ccc(/C=N/NC(=O)c2cc3ccc4c(c3o2)C=CC(C)(C)O4)c(O)c1`, the viability at 5 µM in the experiment with HaCaT was more than 50%. Further, the result in the experiment on DNA [1] was Active. Besides, the IC50 in experiment [2] (read-out: IC50) amounted to 67.4 µM. Further, the Ratio in experiment [3] is 1.01.
On to `Cc1ccc(O)c(/C=N/NC(=O)c2cc3ccc4c(c3o2)C=CC(C)(C)O4)c1`, for which the viability at 5 µM with HaCaT was 62%. Moreover, in the experiment on DNA [1], the outcome was Active. Besides, the IC50 in [2] (read-out: IC50) is more than 100 µM. Moreover, the Ratio in experiment [3] was 0.95.
For `CC1(C)C=Cc2c(ccc3cc(C(=O)N/N=C/c4ccc(O)c(O)c4)oc23)O1`, the viability at 5 µM in the experiment with HaCaT is 60%. Besides, the outcome in the experiment with DNA [7] and in the experiment with DNA [6] was Active. Further, the IC50 in experiment [2] (read-out: IC50) is 5.92 µM. Also, the Activity result in the experiment on DNA [8] was “Dde”. Moreover, the Ratio in experiment [3] was 3.97.
As for `O=c1c(O)c(-c2ccc(O)c(O)c2)oc2cc(O)ccc12` [FISETIN], the viability at 5 µM with HaCaT came to 70%.
Regarding `O=C1O[C@H]([C@@H](O)CO)C(O)=C1O` [ASCORBIC ACID], the IC50 in experiment [2] (read-out: IC50) worked out at 51.2 µM. In experiment [3], the Ratio amounted to 0.72.
For `CC1(C)C=Cc2c(ccc3cc(C(=O)N/N=C/c4cccc(O)c4)oc23)O1`, the result in the experiment with DNA [5] and in the experiment with DNA [4] was Active.
As for `COc1cc(/C=N/NC(=O)c2cc3ccc4c(c3o2)C=CC(C)(C)O4)ccc1O`, the viability at 5 µM in the experiment with HaCaT was 44%. Also, the outcome with DNA [4] and with DNA [1] was Active. Besides, the IC50 in experiment [2] (read-out: IC50) was determined as 87.8 µM. Also, the Ratio in experiment [3] was 1.75.
Take `CC1(C)C=Cc2c(ccc3cc(C(=O)N/N=C/c4cc(O)c(O)cc4O)oc23)O1`: in the experiment on HaCaT, the viability at 5 µM stood at 56%. In the experiment with DNA [7], the outcome was Active. The IC50 in experiment [2] (read-out: IC50) stood at 24.3 µM. For the same compound, the Ratio in experiment [3] is 2.43.
Consider `COc1cc(/C=N/NC(=O)c2cc3ccc4c(c3o2)C=CC(C)(C)O4)cc(I)c1O`, for which the viability at 5 µM with HaCaT came to 59%. In addition, the outcome in the experiment on DNA [4] and with DNA [1] was Active. In addition, the IC50 in [2] (read-out: IC50) was more than 100 µM. In experiment [3], the Ratio was 0.99.
As for `COc1ccc(/C=N/NC(=O)c2cc3ccc4c(c3o2)C=CC(C)(C)O4)cc1O`, in the experiment with HaCaT, the viability at 5 µM is 44%. Moreover, the outcome in the experiment on DNA [4] and in the experiment with DNA [1] was Active. The IC50 in [2] (read-out: IC50) was more than 100 µM. In [3], the Ratio came out at 1.36.
As to `CC1(C)C=Cc2c(ccc3cc(C(=O)N/N=C/c4c(O)cc(O)cc4O)oc23)O1`, the viability at 5 µM in the experiment with HaCaT was 56%. Also, the result in the experiment with DNA [9] was Active. The IC50 in experiment [2] (read-out: IC50) is 81 µM. Also, the Ratio in [3] turned out to be 1.36.
For the compound `CC1(C)C=Cc2c(ccc3cc(C(=O)N/N=C/c4cc(O)c(O)c(O)c4)oc23)O1`, the viability at 5 µM in the experiment on HaCaT was 56%. Also, in the experiment with DNA [9], the outcome was Active. Moreover, the IC50 in experiment [2] (read-out: IC50) was found to be 27.9 µM. Besides, the Ratio in experiment [3] worked out at 2.59.
As to `CC1(C)C=Cc2c(ccc3cc(C(=O)N/N=C/c4cc(O)ccc4O)oc23)O1`, the result in the experiment on DNA [5] was Active. The viability at 5 µM in the experiment on HaCaT was found to be 69%. Also, the IC50 in [2] (read-out: IC50) was determined as 9.1 µM. Further, the Ratio in experiment [3] was found to be 1.8.
Consider `COc1cc(/C=N/NC(=O)c2cc3ccc4c(c3o2)C=CC(C)(C)O4)cc(OC)c1O`, for which the viability at 5 µM in the experiment on HaCaT is 57%. Also, the outcome with DNA [4] and with DNA [1] was Active. In addition, the IC50 entry in [2] is “Nd(Insoluble)”. For the same compound, in [3], the Ratio stood at 2.22.
For `CC1(C)C=Cc2c(ccc3cc(C(=O)N/N=C/c4ccc(O)cc4)oc23)O1`, the outcome with DNA [5] and in the experiment on DNA [4] was Active. For the same compound, the IC50 in experiment [2] (read-out: IC50) was more than 100 µM. In [3], the Ratio was found to be 0.79.
For the compound `Cc1cc(/C=N/NC(=O)c2cc3ccc4c(c3o2)C=CC(C)(C)O4)cc(C)c1O`, in the experiment on HaCaT, the viability at 5 µM is 50%. Also, the outcome in the experiment on DNA [4] and with DNA [1] was Active. For the same compound, the IC50 in [2] (read-out: IC50) amounted to 61.2 µM. Besides, the Ratio in experiment [3] came to 1.11.
For `COc1cccc(/C=N/NC(=O)c2cc3ccc4c(c3o2)C=CC(C)(C)O4)c1O`, the viability at 5 µM with HaCaT came to 44%. For the same compound, the result in the experiment on DNA [1] was Active. Moreover, the IC50 in [2] (read-out: IC50) was more than 100 µM. In addition, in experiment [3], the Ratio is 0.85.
Turning to `COc1cc(/C=N/NC(=O)c2cc3ccc4c(c3o2)C=CC(C)(C)O4)cc(Br)c1O`, in the experiment with HaCaT, the viability at 5 µM was 59%. The result in the experiment on DNA [4] and in the experiment on DNA [1] was Active. For the same compound, the IC50 in experiment [2] (read-out: IC50) is more than 100 µM. Moreover, the Ratio in experiment [3] came out at 1.09.
Take `COc1ccc(O)c(/C=N/NC(=O)c2cc3ccc4c(c3o2)C=CC(C)(C)O4)c1`: in the experiment with HaCaT, the viability at 5 µM was determined as 44%. Also, the outcome in the experiment with DNA [1] was Active. Also, the IC50 in experiment [2] (read-out: IC50) is more than 100 µM. Also, the Ratio in experiment [3] was 1.22.
Take `CC1(C)C=Cc2c(ccc3cc(C(=O)N/N=C/c4ccccc4O)oc23)O1`: the result in the experiment on DNA [5] was Active. Also, the viability at 5 µM with HaCaT came to 62%. For the same compound, the Ratio in [3] worked out at 0.48.
Regarding `CC1(C)C=Cc2c(ccc3cc(C(=O)N/N=C/c4cc(O)cc(O)c4)oc23)O1`, the result with DNA [5] and with DNA [4] was Active. In addition, the half-inhibitory concentration (IC50) in experiment [2] (read-out: IC50) was more than 100 µM. Further, in experiment [3], the Ratio was determined as 1.27.
`CC1(C)C=Cc2c(ccc3cc(C(=O)N/N=C/c4cccc(O)c4O)oc23)O1`: in the experiment with DNA [9], the result was Active. Moreover, the concentration for half-maximal inhibition (IC50) in experiment [2] (read-out: IC50) was 6.04 µM. The Ratio in [3] was 1.75.
